Test results: ChEMBL document CHEMBL1201862, “PubChem BioAssay data set” (2004)
The source made the active and inactive calls.

Experiments:
[1] = biological target: T1, Orexin/Hypocretin receptor type 1 (Homo sapiens, UniProt O43613); experiment: (§1) Fluorescence-based cell-based high throughput dose response assay for antagonists of the orexin 1 receptor (OX1R; HCRTR1). [Related pubchem assays (depositor defined):AID434989, AID435008, AID463079, AID485270, AID492963, AID492964, AID492965, AID493232, AID504717, AID504718]; assay type: functional
T1 sequence (O43613 whole entry): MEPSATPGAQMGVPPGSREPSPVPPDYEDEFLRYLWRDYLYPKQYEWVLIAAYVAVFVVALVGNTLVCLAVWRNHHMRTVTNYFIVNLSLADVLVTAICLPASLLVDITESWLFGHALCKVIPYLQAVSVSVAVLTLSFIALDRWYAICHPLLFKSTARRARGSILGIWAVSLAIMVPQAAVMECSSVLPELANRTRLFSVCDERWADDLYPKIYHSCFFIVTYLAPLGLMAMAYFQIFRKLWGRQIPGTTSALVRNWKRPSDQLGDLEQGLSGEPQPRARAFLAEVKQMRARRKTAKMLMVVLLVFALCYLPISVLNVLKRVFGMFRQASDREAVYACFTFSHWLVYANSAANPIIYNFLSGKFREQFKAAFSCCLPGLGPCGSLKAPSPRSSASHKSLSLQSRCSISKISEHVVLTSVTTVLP

[2] = biological target: T1, Orexin/Hypocretin receptor type 1; experiment: as §1, with “Homogeneous Time Resolved Fluorescence (HTRF)-based” for “Fluorescence-based”; assay type: functional
[3] = tested on: CHO-K1; experiment: (§2) Counterscreen for antagonists of the orexin 1 receptor (OX1R; HCRTR1): Homogeneous time resolved fluorescence (HTRF)-based cell-based dose response assay to identify antagonists of the parental CHO-K1 cell line. [Related pubchem assays (depositor defined):AID434989, AID435008, AID463079, AID485270, AID492963, AID492964, AID492965, AID493232, AID504699, AID504701]; assay type: functional; conditions: Cricetulus griseus
[4] = biological target: T2, Orexin receptor type 2 (Homo sapiens, UniProt O43614); experiment: Counterscreen assay for antagonists of the orexin 1 receptor (OX1R; HCRTR1): Homogeneous Time Resolved Fluorescence (HTRF)-based cell-based dose response assay for antagonists of the orexin 2 receptor (OX2R; HCRTR2), run by assay provider.; assay type: functional
T2 sequence (O43614 whole entry): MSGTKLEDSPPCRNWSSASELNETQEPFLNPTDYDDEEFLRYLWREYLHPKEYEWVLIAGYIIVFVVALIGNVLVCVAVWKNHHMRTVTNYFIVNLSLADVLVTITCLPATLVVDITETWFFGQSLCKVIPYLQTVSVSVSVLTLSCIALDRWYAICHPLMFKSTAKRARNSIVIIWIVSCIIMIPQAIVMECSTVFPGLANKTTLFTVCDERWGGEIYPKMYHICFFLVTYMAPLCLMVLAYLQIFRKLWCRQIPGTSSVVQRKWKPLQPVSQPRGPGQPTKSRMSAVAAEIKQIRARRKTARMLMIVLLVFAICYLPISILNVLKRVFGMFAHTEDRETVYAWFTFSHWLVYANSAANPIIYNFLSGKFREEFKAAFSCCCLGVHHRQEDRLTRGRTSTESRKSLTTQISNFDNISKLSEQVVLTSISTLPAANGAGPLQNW

[5] = biological target: T2, Orexin receptor type 2; experiment: Counterscreen assay for antagonists of the orexin 1 receptor (OX1R; HCRTR1): Fluorescence-based cell-based dose response assay for antagonists of the orexin 2 receptor (OX2R; HCRTR2), run by assay provider.; assay type: functional
[6] = NIH-3T3 fibroblast cytotoxicity, dose response, cytotoxicity control, cell-based, fluorescence, Alamar Blue, secondary assay (AID 2327); assay type: functional;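 further: NIH-3T3 mouse fibroblasts cultured with fluconazole at 8 µg/mL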
[7] = fluconazole-exposed Candida albicans growth modulators – fluorescence, retest, confirmation (AID 2467); assay type: functional, cell-based
[8] = biological target: NAD-dependent protein deacylase sirtuin-5, mitochondrial (Homo sapiens, UniProt Q9NXA8); experiment: sirtuin-5 deacylation blockers, concentration series – biochemical, fluorescence imaging, cherry-pick, set 5, dose response (AID 720591);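 further: desuccinylation of succinyl peptide AMC substrate read as fluorescence after trypsin release; potency of inhibitors that lower fluorescence and may act on trypsin instead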
[9] = as §2, with “Fluorescence-based” for “Homogeneous time resolved fluorescence (HTRF)-based”, “cell-based high throughput” for “cell-based”, “CHO” for “CHO-K1”; assay type: functional
[10] = biological target: T3, Sentrin-specific protease 8 (Homo sapiens, UniProt Q96LD8); experiment: inhibition of sentrin protease 8 – biochemical, luminescence, set 2, SAR follow-up (AID 588601); assay type: functional
T3 sequence (Q96LD8 whole entry): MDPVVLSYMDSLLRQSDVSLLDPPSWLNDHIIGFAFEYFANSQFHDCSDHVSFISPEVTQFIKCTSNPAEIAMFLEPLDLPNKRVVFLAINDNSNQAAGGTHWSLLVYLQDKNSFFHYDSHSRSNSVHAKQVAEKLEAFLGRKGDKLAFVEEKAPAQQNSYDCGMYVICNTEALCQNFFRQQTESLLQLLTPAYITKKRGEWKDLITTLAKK

[11] = biological target: T4, Sentrin-specific protease 7 (Homo sapiens, UniProt Q9BQF6); experiment: inhibition of human SENP7 cleavage activity – biochemical, luminescence, set 2, SAR follow-up (AID 588600); assay type: functional
T4 sequence (Q9BQF6 whole entry): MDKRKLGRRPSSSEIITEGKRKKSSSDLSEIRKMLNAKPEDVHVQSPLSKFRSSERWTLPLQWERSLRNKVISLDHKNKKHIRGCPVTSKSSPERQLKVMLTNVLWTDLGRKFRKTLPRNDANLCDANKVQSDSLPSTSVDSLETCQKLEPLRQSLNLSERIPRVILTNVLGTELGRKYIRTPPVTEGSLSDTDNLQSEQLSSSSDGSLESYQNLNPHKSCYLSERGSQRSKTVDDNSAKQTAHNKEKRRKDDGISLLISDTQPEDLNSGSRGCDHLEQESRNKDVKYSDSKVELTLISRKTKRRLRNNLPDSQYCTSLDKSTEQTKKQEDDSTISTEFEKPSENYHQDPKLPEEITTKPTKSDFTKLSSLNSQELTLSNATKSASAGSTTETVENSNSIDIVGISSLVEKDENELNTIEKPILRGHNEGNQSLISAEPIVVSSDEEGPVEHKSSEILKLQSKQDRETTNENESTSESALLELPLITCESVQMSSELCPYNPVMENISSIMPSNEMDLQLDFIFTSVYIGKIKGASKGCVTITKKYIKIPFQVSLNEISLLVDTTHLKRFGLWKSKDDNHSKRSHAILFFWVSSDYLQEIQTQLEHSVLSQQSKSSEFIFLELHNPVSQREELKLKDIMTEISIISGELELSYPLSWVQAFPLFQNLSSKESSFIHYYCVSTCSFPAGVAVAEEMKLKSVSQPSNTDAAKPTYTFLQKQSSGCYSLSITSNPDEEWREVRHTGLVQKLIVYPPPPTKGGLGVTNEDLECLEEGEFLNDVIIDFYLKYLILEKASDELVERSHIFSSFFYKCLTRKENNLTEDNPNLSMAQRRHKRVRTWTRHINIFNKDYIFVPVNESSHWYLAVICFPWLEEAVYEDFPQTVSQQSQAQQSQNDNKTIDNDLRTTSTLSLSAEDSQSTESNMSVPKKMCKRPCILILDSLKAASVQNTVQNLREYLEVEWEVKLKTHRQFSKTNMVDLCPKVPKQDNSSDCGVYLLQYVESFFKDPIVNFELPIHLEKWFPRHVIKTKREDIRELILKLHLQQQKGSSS

[12] = biological target: T5, Caspase-3 (Homo sapiens, UniProt P42574); experiment: inhibition of recombinant caspase-3 activity – biochemical, luminescence, set 2, selectivity assay for SENP protease inhibitor project, SAR follow-up (AID 588599); assay type: functional
T5 sequence (P42574 whole entry): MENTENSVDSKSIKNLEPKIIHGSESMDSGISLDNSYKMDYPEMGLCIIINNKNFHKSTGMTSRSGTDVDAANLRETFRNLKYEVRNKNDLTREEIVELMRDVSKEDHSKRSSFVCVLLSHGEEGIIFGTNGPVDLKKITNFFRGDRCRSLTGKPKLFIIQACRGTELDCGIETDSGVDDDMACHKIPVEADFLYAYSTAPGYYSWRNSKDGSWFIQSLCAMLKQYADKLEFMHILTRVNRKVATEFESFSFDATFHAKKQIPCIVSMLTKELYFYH

[13] = biological target: T6, Sentrin-specific protease 6 (Homo sapiens, UniProt Q9GZR1); experiment: inhibition of human SENP6 catalytic domain – biochemical, luminescence, set 2, SAR follow-up (AID 588598); assay type: functional
T6 sequence (Q9GZR1 whole entry): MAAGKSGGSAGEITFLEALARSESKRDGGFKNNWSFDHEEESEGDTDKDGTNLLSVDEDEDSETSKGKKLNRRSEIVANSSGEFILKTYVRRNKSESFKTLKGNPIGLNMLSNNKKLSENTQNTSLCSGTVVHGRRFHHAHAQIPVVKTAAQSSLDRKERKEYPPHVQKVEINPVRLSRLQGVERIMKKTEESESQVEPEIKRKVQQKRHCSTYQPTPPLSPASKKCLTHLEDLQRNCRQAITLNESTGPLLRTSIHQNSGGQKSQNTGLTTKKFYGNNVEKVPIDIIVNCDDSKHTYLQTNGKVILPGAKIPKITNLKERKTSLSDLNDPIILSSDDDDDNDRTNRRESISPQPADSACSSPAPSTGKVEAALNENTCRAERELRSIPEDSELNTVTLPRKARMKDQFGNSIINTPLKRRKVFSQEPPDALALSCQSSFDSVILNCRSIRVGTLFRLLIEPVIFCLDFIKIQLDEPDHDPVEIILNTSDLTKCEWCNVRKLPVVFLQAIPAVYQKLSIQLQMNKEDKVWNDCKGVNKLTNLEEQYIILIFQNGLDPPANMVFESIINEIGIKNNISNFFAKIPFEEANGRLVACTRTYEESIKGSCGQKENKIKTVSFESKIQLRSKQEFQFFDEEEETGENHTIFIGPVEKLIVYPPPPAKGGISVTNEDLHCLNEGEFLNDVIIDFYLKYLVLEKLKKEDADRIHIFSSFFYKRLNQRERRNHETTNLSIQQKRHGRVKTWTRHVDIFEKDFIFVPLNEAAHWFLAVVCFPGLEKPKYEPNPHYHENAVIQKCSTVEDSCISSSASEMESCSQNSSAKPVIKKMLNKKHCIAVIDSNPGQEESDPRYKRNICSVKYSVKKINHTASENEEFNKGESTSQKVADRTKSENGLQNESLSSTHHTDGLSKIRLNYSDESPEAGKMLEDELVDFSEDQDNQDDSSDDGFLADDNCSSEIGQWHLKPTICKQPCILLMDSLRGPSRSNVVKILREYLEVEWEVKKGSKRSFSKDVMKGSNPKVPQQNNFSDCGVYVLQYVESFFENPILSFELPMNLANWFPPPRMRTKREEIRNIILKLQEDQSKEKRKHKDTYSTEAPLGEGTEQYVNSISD

[14] = biological target: Protein disulfide-isomerase (Homo sapiens, UniProt P07237); experiment: inhibition of PDI-driven insulin aggregation – biochemical, turbidity, absorbance, cherry-picked samples, dose response (AID 602350); assay type: functional
[15] = biological target: T5, Caspase-3; experiment: SAR Analysis of small molecule inhibitors of Sentrin-specific proteases (SENPs) using a Caspase-3 Selectivity assay. [Related pubchem assays (depositor defined):AID2540, AID2599, AID434973, AID489001]; assay type: functional
[16] = biological target: T3, Sentrin-specific protease 8; experiment: inhibition of human SENP8 cleavage activity – biochemical, luminescence, SAR follow-up (AID 504501); assay type: functional
[17] = biological target: T4, Sentrin-specific protease 7; experiment: inhibition of human SENP7 cleavage activity – biochemical, luminescence, SAR follow-up (AID 504497); assay type: functional
[18] = biological target: T6, Sentrin-specific protease 6; experiment: SAR Analysis of small molecule inhibitors of Sentrin-specific protease 6 (SENP6) using a Luminescent assay. [Related pubchem assays (depositor defined):AID2582, AID2599]; assay type: functional

Sequence of Protein disulfide-isomerase (P07237 whole entry): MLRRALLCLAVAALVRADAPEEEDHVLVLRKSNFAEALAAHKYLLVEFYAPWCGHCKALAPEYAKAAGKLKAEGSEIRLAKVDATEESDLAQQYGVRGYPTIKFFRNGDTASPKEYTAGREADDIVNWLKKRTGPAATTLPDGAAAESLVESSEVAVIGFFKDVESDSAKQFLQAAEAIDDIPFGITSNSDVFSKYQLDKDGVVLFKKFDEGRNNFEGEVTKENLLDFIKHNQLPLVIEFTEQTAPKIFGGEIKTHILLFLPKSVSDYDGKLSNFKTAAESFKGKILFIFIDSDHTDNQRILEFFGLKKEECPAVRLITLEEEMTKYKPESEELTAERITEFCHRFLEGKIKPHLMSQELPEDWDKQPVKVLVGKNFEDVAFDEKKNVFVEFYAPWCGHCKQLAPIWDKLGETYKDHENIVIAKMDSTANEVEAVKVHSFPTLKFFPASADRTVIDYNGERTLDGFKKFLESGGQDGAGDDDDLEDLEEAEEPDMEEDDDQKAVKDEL
Sequence of NAD-dependent protein deacylase sirtuin-5, mitochondrial (Q9NXA8 whole entry): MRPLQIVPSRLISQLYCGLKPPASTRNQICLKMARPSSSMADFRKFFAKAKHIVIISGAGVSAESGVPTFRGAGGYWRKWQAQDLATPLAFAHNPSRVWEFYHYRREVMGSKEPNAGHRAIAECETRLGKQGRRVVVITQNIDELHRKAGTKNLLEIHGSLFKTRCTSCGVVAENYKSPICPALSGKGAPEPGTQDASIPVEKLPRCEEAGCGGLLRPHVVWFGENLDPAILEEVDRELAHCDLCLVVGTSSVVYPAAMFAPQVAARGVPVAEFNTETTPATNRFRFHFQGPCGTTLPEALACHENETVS

SMILES: CCOc1ccccc1C(=O)Nc1ccc2nc3n(c(=O)c2c1)CCCCC3
- IC50 [1]: 2.58 µM (active)
- IC50 [2]: 0.417 µM (active)
- IC50 [3]: > 66.3 µM (inactive)
- IC50 [4]: > 50 µM (inactive)
- IC50 [5]: > 88.8 µM (inactive)
- EC50 [6]: > 160 µM (inactive)
- EC50 [7]: > 38 µM (not active)
- AC50 [8]: > 30 µM (inactive)
- IC50 [9]: > 49.8 µM (inactive)

SMILES: O=C(NCc1ccccc1F)C(=O)c1c[nH]c2ccccc12
- IC50 [10]: > 99 µM (inactive)
- IC50 [11]: > 99 µM (inactive)
- IC50 [12]: > 99 µM (inactive)
- IC50 [13]: > 99 µM (inactive)

SMILES: CC[C@]12c3[nH]c4cc(-c5ccco5)ccc4c3CCN1C(=O)[C@@H](CC(=O)NCCCOC)C[C@@H]2C(=O)N1CCN(C(=O)c2ccco2)CC1
- AC50 [14]: 16.7 µM (active)

SMILES: Cn1c2ccc(Cl)cc2c2nc3ccccc3nc21
- IC50 [1]: 4.25 µM (active)
- IC50 [2]: 1.13 µM (active)
- IC50 [3]: > 66.2 µM (inactive)
- IC50 [4]: > 50 µM (inactive)
- IC50 [5]: > 88.8 µM (inactive)
- IC50 [9]: > 49.8 µM (inactive)

SMILES: O=C(COc1ccc(Cl)cc1Cl)NCC(=O)N/N=C/c1c[nH]c2ccccc12
- IC50 [10]: > 99 µM (inactive)
- IC50 [11]: > 99 µM (inactive)
- IC50 [12]: > 99 µM (inactive)
- IC50 [13]: > 99 µM (inactive)

SMILES: CCc1cccc2sc(NC(=O)c3cccc(F)c3)nc12
- IC50 [15]: > 99 µM (inactive)
- IC50 [16]: > 99 µM (inactive)
- IC50 [17]: > 99 µM (inactive)
- IC50 [18]: > 99 µM (inactive)

SMILES: C[C@H]1CN([C@@H](C)CO)C(=O)c2cc(NC(=O)Cc3cn(C)c4ccccc34)ccc2O[C@H]1CN(C)S(=O)(=O)c1ccc(F)cc1
- AC50 [14]: 19.5 µM (active)
